Measurements: patent US12239686B2, “Immune checkpoint inhibitor combinations” (LYTIX BIOPHARMA AS, priority 2014, dated 2025)
Non-standard residues stand in square brackets, D forms with d. Residues, ends and D or L forms follow the SMILES beside them. Dip = N[C@H](C(=O)O)C(c1ccccc1)c1ccccc1

Columns and labels:
[1] = system: EMT-6 murine mammary carcinoma; experiment: EMT-6 mammary carcinoma model, two-flank tumours; type: in vivo, mice
Protocol: The anti-PD-L1 antibody had the following characteristics: ref: BE0101, Bioxcell; clone 10F.9G2; reactivity: mouse; isotype: Rat IgG2b. LTX-315 was prepared at a dose of 0.5 mg/50 μL in 0.9% sodium chloride solution. Anti-PD-L1 antibody was prepared at a concentration in phosphate-buffered saline and was administered at a dose of 10 mg/kg. LTX-315 was injected into the tumour grafted on the right flank of the mice, anti-PD-L1 antibody was injected into the peritoneal cavity of the mice.
Induction of MET-6 tumours in mice: A first tumor was induced by subcutaneous injection of 1×10^6 of EMT-6 cells in 200 μL of RPMI 1640 into the right flank of Balb/C female mice. The day of tumor cell injection in the right flank was considered as DO. A second tumor was induced by subcutaneous injection of 1×10^5 of EMT-6 cells in 200 μL of RPMI 1640 into the left flank of Balb/C female mice. The day of tumor cell injection in the left flank was considered as D3.
Treatment schedule: Mice were randomized according to their body weight on D3 into four groups each of 5 mice (group 1) or 10 mice (groups 3, 5 and 7) using Vivo Manager® software (Biosystemes, Couternon, France). A statistical test (analysis of variance) was performed to test for homogeneity between groups. […]
Mouse monitoring: All study data, including mouse body weight measurements, tumour volume, clinical and mortality records, and treatment were scheduled and recorded on Vivo Manager® database (Biosystemes, Dijon, France). The viability and behaviour was recorded every day. Body weights were measured thrice a week. The length and width of the tumor was measured three times a week with calipers and the volume of the tumour was estimated by the following formula: tumour volume=(width2×length)/2 (SIMPSON-HERREN L. et al. Cancer Chemotherapy Rep., 54: 143, 1970).

[2] = system: murine A20 B-cell lymphoma; experiment: Adoptive spleen cell transfer, A20 B-cell lymphoma model; type: in vivo, mice; conditions: donors: LTX-315 1 mg intratumoural once daily 3 days, complete regression
Protocol: […] Balb/c mice (n=32) were each inoculated with A20 cells (5 million in 50 μL s.c.) on the abdominal surface. Once tumours had reached 20 mm^2 they were injected with LTX-315 (1 mg) injected intratumourally, once daily for 3 days, in a volume of 50 μL. Tumour size (mm^2) and body weight were subsequently monitored and a further injection of LTX-315 was given if any tumour re-growth was observed. Subsequently, mice showing complete tumour regression were sacrificed and used as donors for transfer of splenocytes while naive donor mice were used as controls. Spleens from donor mice were excised and cells isolated. Naive receiver mice were irradiated and divided into 2 groups. Group 1 received isolated splenocytes from cured mice, whereas group 2 received isolated splenocytes from naive mice. Freshly prepared cells were injected (20×106 per 100 μl) via the tail vein. Twenty four hours later receiver mice were inoculated with 5 million murine A20 B-cell lymphoma cells on the abdominal surface as described above. Tumour size and body weight were monitored until the maximum tumour burden of ˜125 mm^2 was reached, or a serious adverse events occurred (i.e. wound formation due to tumour tissue necrosis) at which point mice were sacrificed.

human A547 cells = experiment: TEM, mitochondrial membrane; type: cell-based; conditions: 10 μg/ml, 60 minutes
Protocol: FIG. 16 LTX-315 disintegrates the mitochondria membrane. TEM images of FIG. 16a: human A547 melanoma cells treated with LTX-315 (10 μg/ml) for 60 minutes compared to FIG. 16b: control cells.

human red blood cells = experiment: Haemolytic activity in vitro; type: cell-based; conditions: 1 h, 37° C.
Protocol: Freshly collected human blood was centrifuged at 1500 rpm for 10 minutes in order to isolate the red blood cells. The red blood cells (RBC) were washed three times with PBS [35 mM phosphate buffer with 150 mM NaCl, pH 7.4] by centrifugation at 1500 rpm for 10 minutes, and adjusted to 10% haematocrit with PBS. LTX-315 solutions were added to give a final concentration range of the peptide from 1200 μg/ml to 1 μg/ml and an RBC concentration of 1%. The resulting suspension was incubated with agitation for one hour at 37° C. After incubation the suspension was centrifuged at 4000 rpm for 5 minutes, and the released haemoglobin were monitored by measuring the absorbance of the supernatant at 405 nm. PBS was used as negative control and assumed to cause no haemolysis. 0.1% Triton was used as positive control and assumed to cause complete haemolysis.
Released haemoglobin was monitored by measuring the absorbance of the supernatant at 405 nm, and percent haemolysis was calculated by the equation: […]
LTX-315 concentration corresponding to 50% haemolysis (ECs) was determined from a dose-response curve.

A375 cells = experiment: Release of cytochrome-C, ELISA of supernatant; type: cell-based, human; conditions: 35 μM; 5, 15, 45 min
Protocol: A375 cells were seeded as with HMGB1 studies, and treated with 35 μM for different time points (5, 15, 45). Supernatants were collected and concentrated as with HMGB1 studies, and samples from the supernatants were analyzed using a 4.5 hour solid form Cytochrome C-Elisa kit (R&D Systems, USA, #DCTC0) following the manufacturer's description. Shortly thereafter, a 50% diluted sample was analyzed and the optical density was determined using a microplate reader set at 450 nm, and […]. A standard curve was generated for each set of samples assayed. Samples were run in four parallels, and the cytochrome-c released into the supernatant was expressed as a fold over the level of cytochrome-c in the supernatant of untreated cells.

A375 melanoma cells = experiment: Live cell imaging, bright field confocal microscopy; type: cell-based, human; conditions: at an IC-50 value, majority of the cells
Protocol: Live cell imaging with unlabeled cells-A375 cells were seeded at 10,000 cells/well in a complete media in Nunc Lab-Tec 8-wells chambered covered glass (Sigma) precoated with 25 μg/ml human fibronectin (Sigma) that were allowed to adhere overnight. Cells were washed twice with a serum-free RPMI, treated with peptide dissolved in RPMI and investigated using Bright on a Leica TCS SP5 confocal microscope, with a 63X/1.2W objective. The microscope was equipped with an incubation chamber with CO2 and temperature control.

NCCCC[C@H](NC(=O)[C@@H](NC(=O)[C@H](Cc1c[nH]c2ccccc12)NC(=O)[C@H](CCCCN)NC(=O)[C@H](CCCCN)NC(=O)[C@H](Cc1c[nH]c2ccccc12)NC(=O)[C@H](Cc1c[nH]c2ccccc12)NC(=O)[C@H](CCCCN)NC(=O)[C@@H](N)CCCCN)C(c1ccccc1)c1ccccc1)C(N)=O [LTX-315, K-K-W-W-K-K-W-Dip-K-NH2] (H-KKWWKKW[Dip]K-NH2)
test mice surviving for more than 50 days after tumour induction ([1]; LTX-315 0.5 mg i.t. Q1Dx3, anti-PD-L1 10 mg/kg IP Q2Dx6): 30%
Proportion of Mice with total tumour regression, Right flank ([1]; treated flank, day 52 or when sacrificed): 30%
Proportion of Mice with total tumour regression, Left flank ([1]; untreated flank, day 52 or when sacrificed): 10%
tumour growth in irradiated recipients of splenocytes from LTX-315-cured donors vs naive donors [2]: Inhibition of tumour growth was observed
effect on the mitochondrial membrane (TEM) (human A547 cells): disintegration of the mitochondrial membrane
Mean cell death (%) (human red blood cells; LTX-315 1 μg/ml): 0.0%
Mean cell death (%) (human red blood cells; LTX-315 10 μg/ml): 0.6%
Mean cell death (%) (human red blood cells; LTX-315 50 μg/ml): 1.6%
Mean cell death (%) (human red blood cells; LTX-315 100 μg/ml): 3.6%
cytochrome-C in the supernatant vs untreated control cells (A375 cells): three times more cytochrome-C in the supernatant compared to untreated control cells
time to cell collapse with extrusion of cytoplasmic content (A375 melanoma cells): 15 to 60 min
